Test results reported in patent publication US9914722B2, “Compounds for treating spinal muscular atrophy” (PTC Therapeutics Inc., priority 2012, dated 2018).

What was measured:
Smn protein = Smn protein assay (Smn HTRF) in cultured cells; type: cell-based, human; conditions: Homo sapiens, Fibroblast, GM03813 SMA Type 1 patient fibroblasts, 48 hours, HTRF; for maximal fold induction: 7-point concentration data, relative to vehicle, read-out: maximum fold (Fold) increase of Smn protein; for EC (1.5-fold): concentration producing 1.5 times Smn protein vs DMSO vehicle, read-out: EC1.5x for Smn protein expression
Experimental: Smn Protein Assay in Cultured Cells
The Smn HTRF (homogeneous time resolved fluorescence) assay is used to quantify the level of Smn protein in SMA patient fibroblast cells treated with test compounds.
Protocol. Cells are thawed and cultured in DMEM-10% FBS for 72 hours. Cells are trypsinized, counted and re-suspended to a concentration of 25,000 cells/mL in DMEM-10% FBS. The cell suspension is plated at 5,000 cells per well in a 96 well microtiter plate and incubated for 3 to 5 hours. […] Test compounds are serially diluted 3.16-fold in 100% DMSO to generate a 7-point concentration curve. 1 μL of test compound solution is transferred to cell-containing wells and cells are incubated for 48 hours in a cell culture incubator (37° C., 5% CO2, 100% relateive humidity). Triplicate samples are set up for each test compound concentration. After 48 hours, the supernatant is removed from the wells and 25 μL of the RIPA lysis buffer, containing protease inhibitors, is added to the wells and incubated with shaking at room temperature for 1 hour. 25 μL of the diluent is added and then 35 μL of the resulting lysate is transferred to a 384-well plate, where each well contains 5 μL of the antibody solution (1:100 dilution of anti-SMN d2 and anti-SMN kryptate in SMN reconstitution buffer). The plate is centrifuged for 1 minute to bring the solution to the bottom of the wells, then incubated overnight at room temperature. Fluorescence for each well of the plate at 665 nm and 620 nm is measured on an EnVision multilabel plate reader (Perkin-Elmer).
The normalized fluorescence signal is calculated for each sample, Blank and vehicle control well by dividing the signal at 665 nm by the signal at 620 nm. Normalizing the signal accounts for possible fluorescence quenching due to the matrix effect of the lysate. The AF value (a measurement of Smn protein abundance as a percent value) for each sample well is calculated by subtracting the normalized average fluorescence for the Blank control wells from the normalized fluorescence for each sample well, then dividing this difference by the normalized average fluorescence for the Blank control wells and multiplying the resulting value by 100. The ΔF value for each sample well represents the Smn protein abundance from test compound-treated samples. The ΔF value for each sample well is divided by the ΔF value for the vehicle control wells to calculate the fold increase in Smn protein abundance relative to the vehicle control.
For compounds of Formula (I) or a form thereof disclosed herein, Table 9 provides the EC1.5x for Smn protein expression that was obtained from the 7-point concentration data generated for each test compound according to the procedure of Biological Example 7. The term “EC1.5x for Smn protein expression” is defined as that concentration of test compound that is effective in producing 1.5 times the amount of Smn protein in an SMA patient fibroblast cell compared to the amount produced from the DMSO vehicle control. An EC1.5x for Smn protein expression between >3 μM and ≦10 μM is indicated by one star (*), an EC1.5x between >1 μM and ≦3 μM is indicated by two stars (**), an EC1.5x between >0.3 μM and ≦1 μM is indicated by three stars (***) and an EC1.5x≦0.3 μM is indicated by four stars (****).
For compounds of Formula (I) or a form thereof disclosed herein, Table 10 provides the maximum fold (Fold) increase of Smn protein that was obtained from the 7-point concentration data generated for each test compound according to the procedure of Biological Example 7. A maximum fold increase ≦1.2 is indicated by one star (*), a fold increase between >1.2 and ≦1.35 is indicated by two stars (**), a fold increase between >1.35 and ≦1.5 is indicated by three stars (***), a fold increase between >1.5 and ≦1.65 is indicated by four stars (****) and a fold increase >1.65 is indicated by five stars (*****).

[1] = test system: full length SMN2 minigene mRNA containing SMN2 exon 7 (SMN2-A minigene); experiment: SMN2 minigene mRNA splicing RT-qPCR assay in cultured cells; type: cell-based, human; conditions: Homo sapiens, HEK293-H; HEK293H cells stably transfected with SMN2-A minigene, 24 hours, 7-point concentration curve; concentration giving 1.5-fold SMN2 full length mRNA vs vehicle; read-out: EC1.5x for production of full length SMN2 mRNA
Experimental: SMN2 Minigene mRNA Splicing RT-qPCR Assay in Cultured Cells
The reverse transcription-quantitative PCR-based (RT-qPCR) assay is used to quantify the level of the full length SMN2 minigene mRNA containing SMN2 exon 7 in a HEK293H cell line stably transfected with said minigene and treated with a test compound.
Protocol. HEK293H cells stably transfected with the SMN2-A minigene construct described above (10,000 cells/well) are seeded in 200 μL of cell culture medium (DMEM plus 10% FBS, with 200 μg/mL hygromycin) in 96-well flat-bottom plates and the plate is immediately swirled to ensure proper dispersal of cells, forming an even monolayer of cells. Cells are allowed to attach for at least 4-6 hours. Test compounds are serially diluted 3.16-fold in 100% DMSO to generate a 7-point concentration curve. A solution of test compound (1 μL, 200× in DMSO) is added to each cell-containing well and the plate is incubated for 24 hours in a cell culture incubator (37° C., 5% CO2, 100% relative humidity). Two replicates are prepared for each test compound concentration. The cells are then lysed in Cells-To-Ct lysis buffer and the lysate is stored at −80° C.
Primer SMN Forward A (SEQ ID NO. 1) hybridizes to a nucleotide sequence in exon 7 (nucleotide 22 to nucleotide 40), primer SMN Reverse A (SEQ ID NO. 2) hybridizes to a nucleotide sequence in the coding sequence of Firefly luciferase, SMN Probe A (SEQ ID NO. 3) hybridizes to a nucleotide sequence in exon 7 (nucleotide 50 to nucleotide 54) and exon 8 (nucleotide 1 to nucleotide 21). The combination of these three oligonucleotides detects only SMN1 or SMN2 minigenes (RT-qPCR) and will not detect endogenous SMN1 or SMN2 genes.
The SMN forward and reverse primers are used at final concentrations of 0.4 μM. The SMN probe is used at a final concentration of 0.15 μM. The GAPDH primers are used at final concentrations of 0.2 μM and the probe at 0.15 μM.
The SMN2-minigene GAPDH mix (15 μL total volume) is prepared by combining 7.5 μL of 2×RT-PCR buffer, 0.4 μL of 25×RT-PCR enzyme mix, 0.75 μL of 20×GAPDH primer-probe mix, 4.0075 μL of water, 2 μL of 10-fold diluted cell lysate, 0.06 μL of 100 μM SMN forward primer, 0.06 μL of 100 μM SMN reverse primer, and 0.225 μL of 100 μM SMN probe.
PCR is carried out at the following temperatures for the indicated time: Step 1: 48° C. (15 min); Step 2: 95° C. (10 min); Step 3: 95° C. (15 sec); Step 4: 60° C. (1 min); then repeat Steps 3 and 4 for a total of 40 cycles.
Each reaction mixture contains both SMN2-A minigene and GAPDH primers/probe sets (multiplex design), allowing simultaneous measurement of the levels of two transcripts.
Two SMN spliced products are generated from the SMN2 minigene. The first spliced product containing exon 7, corresponding to SMN2 full length mRNA, is referred to herein using the term “SMN2 minigene FL.” The second spliced product lacking exon 7 is referred to herein using the term “SMN2 minigene Δ7.”
The increase of SMN2 minigene FL mRNA relative to that in cells treated with vehicle control is determined from real-time PCR data using a modified ΔΔCt method (as described in Livak and Schmittgen, Methods, 2001, 25:402-8). The amplification efficiency (E) is calculated from the slope of the amplification curve for SMN2 minigene FL and GAPDH mRNA individually. The abundance of SMN2 minigene FL and GAPDH mRNA are then calculated as (1+E)^−Ct, where Ct is the threshold value for each amplicon. The abundance of SMN2 minigene FL is normalized to GAPDH abundance. The normalized SMN2 minigene FL abundance from test compound-treated samples is then divided by normalized SMN2 minigene FL abundance from vehicle-treated cells to determine the level of SMN2 FL mRNA relative to vehicle control. […]

| Structure (SMILES) | maximal fold induction (Smn protein) | EC (1.5-fold) [1] | melting point | EC (1.5-fold) (Smn protein) |
| --- | --- | --- | --- | --- |
| Cc1ccn2cc(-c3cc(=O)c4cc(N5C[C@@H](C)N[C@@H](C)C5)ccc4o3)nc2c1 [Cpd 30, 6-[(3R,5S)-3,5-dimethylpiperazin-1-yl]-2-(7-methylimidazo[1,2-a]pyridin-2-yl)-4H-chromen-4-one] | 1.2 to 1.35 | 1 to 3 µM | 102 to 104 °C | – |
| COc1ccc(-c2cc(=O)c3cc(N4CCN[C@@H](C)C4)ccc3o2)cc1OC [Cpd 31, 2-(3,4-dimethoxyphenyl)-6-[(3S)-3-methylpiperazin-1-yl]-4H-chromen-4-one] | > 1.65 | ≤ 0.1 µM | 172 to 174 °C | ≤ 0.3 µM |
| O=c1cc(-c2nc3ccccc3s2)oc2ccc(N3CCNCC3)cc12 [Cpd 32, 2-(1,3-benzothiazol-2-yl)-6-(piperazin-1-yl)-4H-chromen-4-one] | 1.2 to 1.35 | 1 to 3 µM | 250 to 254 °C | – |
| C[C@@H]1CN(c2ccc3oc(-c4nc5ccccc5s4)cc(=O)c3c2)CCN1 [Cpd 33, 2-(1,3-benzothiazol-2-yl)-6-[(3R)-3-methylpiperazin-1-yl]-4H-chromen-4-one] | 1.2 to 1.35 | 1 to 3 µM | 142 to 144 °C | – |
| C[C@@H]1CN(c2ccc3oc(-c4nc5ccccc5s4)cc(=O)c3c2)C[C@H](C)N1 [Cpd 34, 2-(1,3-benzothiazol-2-yl)-6-[(3R,5S)-3,5-dimethylpiperazin-1-yl]-4H-chromen-4-one] | 1.35 to 1.5 | 0.3 to 1 µM | 200 to 202 °C | – |
| CN1CCN(c2ccc3oc(-c4nc5ccccc5s4)cc(=O)c3c2)CC1 [Cpd 35, 2-(1,3-benzothiazol-2-yl)-6-(4-methylpiperazin-1-yl)-4H-chromen-4-one] | 1.2 to 1.35 | 1 to 3 µM | 215 to 220 °C | – |
| C[C@H]1CN(c2ccc3oc(-c4nc5ccccc5s4)cc(=O)c3c2)CCN1 [Cpd 36, 2-(1,3-benzothiazol-2-yl)-6-[(3S)-3-methylpiperazin-1-yl]-4H-chromen-4-one] | 1.5 to 1.65 | 0.3 to 1 µM | 140 to 142 °C | 1 to 3 µM |
| COc1ccc(-c2cc(=O)c3cc(N4CCNCC4)ccc3o2)cc1F [Cpd 37, 2-(3-fluoro-4-methoxyphenyl)-6-(piperazin-1-yl)-4H-chromen-4-one] | 1.35 to 1.5 | 0.1 to 0.3 µM | 178 to 180 °C | 1 to 3 µM |
| COc1ccc(-c2cc(=O)c3cc(N4C[C@@H](C)N[C@@H](C)C4)ccc3o2)cc1F [Cpd 39, 6-[(3R,5S)-3,5-dimethylpiperazin-1-yl]-2-(3-fluoro-4-methoxyphenyl)-4H-chromen-4-one] | 1.5 to 1.65 | 0.1 to 0.3 µM | 180 to 182 °C | 3 to 10 µM |
| COc1ccc(-c2cc(=O)c3cc(N4CCN[C@H](C)C4)ccc3o2)cc1F [Cpd 40, 2-(3-fluoro-4-methoxyphenyl)-6-[(3R)-3-methylpiperazin-1-yl]-4H-chromen-4-one] | 1.35 to 1.5 | 0.1 to 0.3 µM | 110 to 112 °C | 1 to 3 µM |
| CCOc1ccc(-c2cc(=O)c3cc(N4CCNCC4)ccc3o2)cc1 [Cpd 41, 2-(4-ethoxyphenyl)-6-(piperazin-1-yl)-4H-chromen-4-one] | ≤ 1.2 | 0.3 to 1 µM | 180 to 182 °C | – |
| CCOc1ccc(-c2cc(=O)c3cc(N4CCN[C@@H](C)C4)ccc3o2)cc1 [Cpd 42, 2-(4-ethoxyphenyl)-6-[(3S)-3-methylpiperazin-1-yl]-4H-chromen-4-one] | 1.2 to 1.35 | 0.3 to 1 µM | 93 to 94 °C | – |
| CCOc1ccc(-c2cc(=O)c3cc(N4CCN[C@H](C)C4)ccc3o2)cc1 [Cpd 44, 2-(4-ethoxyphenyl)-6-[(3R)-3-methylpiperazin-1-yl]-4H-chromen-4-one] | ≤ 1.2 | 1 to 3 µM | 92 to 94 °C | – |
| COc1cc(F)c(-c2cc(=O)c3cc(N4CCNCC4)ccc3o2)cc1OC [Cpd 45, 2-(2-fluoro-4,5-dimethoxyphenyl)-6-(piperazin-1-yl)-4H-chromen-4-one] | 1.2 to 1.35 | 1 to 3 µM | 130 to 132 °C | – |
